In US20080085889A1, “Amidomethyl-Substituted 1-(Carboxyalkyl) Cyclopentyl-Carbonylamino-Benzazepine-N-Acetic Acid Compounds, Process and Intermediate Products for Their Preparation and Pharmaceutical Compositions Containing Them” (SOLVAY PHARMACEUTICALS GmbH, priority 2003, published 2008):

Tests used:
[1] = test system: pyramidal neurons of the hippocampal CA3 subfield; assay: Traumatic brain injury: delayed apoptotic neuronal death, neuronal densities in CA3 hippocampus; type: in vivo, Adult Wistar rats; conditions: for Neuronal densities CA3 hippocampus: traumatized right side, ± SEM
Procedure: 1. Traumatic Brain Injury: Delayed Apoptotic Neuronal Death
Contusing device. The contusing device consisted of a stainless steel tube, 40 cm in length, perforated at 1 cm intervals to prevent air compression in the tube. Adult Wistar rats, 230-270 g, were anesthetized with chloral hydrate, 400 mg/kg i.p., a craniotomy over the right hemisphere was made, the device guiding a falling weight onto the footplate resting upon the surface of the dura was placed perpendicular to the surface of the skull, and a force of 380 g×cm produced by a 20 g weight was selected to produce brain contusion. A maximum of 2.5 mm depression of the brain surface was allowed to avoid mechanical puncture of the dura. The center of the footplate was stereotaxically positioned 1.5 mm posterior and 2.5 mm lateral to the bregma. The rats underwent perfusion fixation 3 days after brain injury with a solution containing 4% paraformaldehyde in phosphate buffer.
Intracerebroventricular injections: Compounds were administered intracerebroventricularly (=i.c.v.) by means of a Hamilton syringe in a volume of 5-15 μl. Injections were performed over 5 min, 15 min-8 hrs after trauma using the following stereotaxic coordinates: AP=−0.5 mm, L=−2 mm and V=−5.5 in relation to bregma (Swanson, L. W. (1992) Brain Maps: Structure of the Rat Brain, Elsevier, Amsterdam).
Morphometric analysis in hippocampus. The damage in the hippocampal CA3 subfield was determined stereologically at 5 different rostrocaudal levels extending from 10.21 to 11.21 mm (Swanson, L. W. (1992) Brain Maps Structure of the Rat Brain, Elsevier, Amsterdam) and throughout its mediolateral axis three days after traumatic injury. To quantitatively assess neuronal loss in the hippocampus, stereological disector technique (Cruz-Orive, L. M. & Weibel, E. R. (1990) Am. J. Physiol. 258, L148-L156) was used to estimate numerical density (Nv) of pyramidal neurons. An unbiased counting frame (0.05 mm×0.05 mm; disector height 0.01 mm) and a high-aperture objective (×40) were used for sampling. Normal neurons were identified by the presence of the typical nuclei with clear nucleoplasm and distinct nucleolus surrounded by cytoplasm containing Nissl substance. The border between CA2 and CA3 subfields was considered as the point where the looser arrangement of large pyramidal cells goes into densely packed pyramidal cells of the subfield CA3. An arbitrary line connecting the lateral ends of the dentate granule cell layers was considered a junction between subfields CA3 and CA4.
Dose response of the neuroprotective effect of the test substance of Example 3 when administered i.c.v. 15 min after trauma to adult Wistar rats was measured. Neuronal densities were determined in the CA3 hippocampal subfield as described in the methods. Densities of CA3 neurons ±Standard Error of […] (=SEM) in 6 stereotactic levels in the left non-traumatized side of vehicle treated rats and the traumatized right side of vehicle treated rats and in rats treated with the test substance of Example 3 were measured and the results listed in table 6 below.
The time window of the neuroprotective effect of test substance of Example 3 when administered i.c.v. 2, 4 or 8 hrs after trauma to adult Wistar rats was measured. Neuronal densities were determined in the CA3 hippocampal subfield as described in the methods. Densities of CA3 neurons ±SEM in 6 stereotactic levels in the traumatized right side of rats treated with either vehicle or the test compound of Example 3 were measured and the results listed in table 7 below.

[2] = test system: maximal SAP response to Big-ET; assay: In vivo inhibition of maximal SAP response to Big-ET in anesthetized rats after oral administration; parameters: species or system Rats (Sprague-Dawley); conditions: oral by gavage, 100 μmol/kg, 1 h before Big-ET challenge; mean ± standard error; negative = inhibition
Procedure: Rats (Sprague-Dawley, CRLD=Charles River) were anaesthetised with 1 ml/kg Rompun/Ketavet 1:1. A pressure transducer (Statham) was inserted into the carotid artery to measure blood pressure.
For oral testing, the substances (or vehicle) were given by gavage at doses of 100 μmol/kg each, 1 h before the Big-ET challenge, and blood pressure and heart rate were monitored as described above.
The inhibition of maximal SAP response to Big-ET in anesthetized rats following oral administration of the test substances of Formula I is set forth in the following Table 3c: […]
Data given in table 3c as negative values indicate an inhibitory effect. Values are means from 3-6 independent series of experiments ±standard error.

For CC(C)NC(=O)CC(CC1(C(=O)N[C@H]2CCc3ccccc3N(CC(=O)O)C2=O)CCCC1)C(=O)O (stereo in doubt) [Example 3, (2″rel1″)-2-{[(3S)-1-({[1-(carboxymethyl)-2-oxo-2,3,4,5-tetrahydro-1H-1-benzazepin-3-yl]amino}-carbonyl)cyclopentyl]methyl}-4-(isopropylamino)-4-oxobutyric acid], which “Neuronal densities CA3 hippocampus” value ([1]; 3 μg i.c.v. 15 min after trauma, stereotactic level 10.21) is on record?
Its value is 98.40 ± 4.39 cells × 10^3/mm^3.

And the “Neuronal densities CA3 hippocampus” value ([1]; 3 μg i.c.v. 15 min after trauma, stereotactic level 10.41)?
Its value is 89.00 ± 5.05 cells × 10^3/mm^3.

What about the “Neuronal densities CA3 hippocampus” value ([1]; 3 μg i.c.v. 15 min after trauma, stereotactic level 10.61) of the same compound?
Its value is 72.80 ± 6.01 cells × 10^3/mm^3.

What about the “Neuronal densities CA3 hippocampus” value ([1]; 3 μg i.c.v. 15 min after trauma, stereotactic level 10.81) of the same compound?
The value was 84.20 ± 6.47 cells × 10^3/mm^3.

And the “Neuronal densities CA3 hippocampus” value ([1]; 3 μg i.c.v. 15 min after trauma, stereotactic level 11.01)?
The value was 86.00 ± 7.44 cells × 10^3/mm^3.

What about the “Neuronal densities CA3 hippocampus” value ([1]; 3 μg i.c.v. 15 min after trauma, stereotactic level 11.21) of the same compound?
Its value is 95.40 ± 6.96 cells × 10^3/mm^3.

And the “effect on hippocampal neuronal loss” value ([1]; 10 μg i.c.v. 2, 4 or 8 hrs after trauma, P<0.001 at 2 and 4 hrs, P<0.01 for 8 hrs)?
The value was “partially prevented hippocampal neuronal loss”.

And the “Neuronal densities CA3 hippocampus” value ([1]; 10 μg i.c.v. 15 min after trauma, stereotactic level 10.21)?
The value was 108.60 ± 4.30 cells × 10^3/mm^3.

And the “Neuronal densities CA3 hippocampus” value ([1]; 10 μg i.c.v. 15 min after trauma, stereotactic level 10.41)?
The value was 108.60 ± 5.34 cells × 10^3/mm^3.

What about the “Neuronal densities CA3 hippocampus” value ([1]; 10 μg i.c.v. 15 min after trauma, stereotactic level 10.61) of the same compound?
The value was 111.40 ± 7.09 cells × 10^3/mm^3.

And the “Neuronal densities CA3 hippocampus” value ([1]; 10 μg i.c.v. 15 min after trauma, stereotactic level 10.81)?
Its value is 112.00 ± 6.42 cells × 10^3/mm^3.

And the “Neuronal densities CA3 hippocampus” value ([1]; 10 μg i.c.v. 15 min after trauma, stereotactic level 11.01)?
The value was 111.40 ± 7.11 cells × 10^3/mm^3.

And the “Neuronal densities CA3 hippocampus” value ([1]; 10 μg i.c.v. 15 min after trauma, stereotactic level 11.21)?
The value was 119.20 ± 3.70 cells × 10^3/mm^3.

What about the “Neuronal densities CA3 hippocampus” value ([1]; 10 μg i.c.v. 2 hrs after trauma, stereotactic level 10.21) of the same compound?
Its value is 72.30 ± 4.80 cells × 10^3/mm^3.

What about the “Neuronal densities CA3 hippocampus” value ([1]; 10 μg i.c.v. 2 hrs after trauma, stereotactic level 10.41) of the same compound?
Its value is 68.10 ± 6.30 cells × 10^3/mm^3.

What about the “Neuronal densities CA3 hippocampus” value ([1]; 10 μg i.c.v. 2 hrs after trauma, stereotactic level 10.61) of the same compound?
The value was 60.80 ± 5.60 cells × 10^3/mm^3.

And the “Neuronal densities CA3 hippocampus” value ([1]; 10 μg i.c.v. 2 hrs after trauma, stereotactic level 10.81)?
The value was 60.20 ± 9.40 cells × 10^3/mm^3.

What about the “Neuronal densities CA3 hippocampus” value ([1]; 10 μg i.c.v. 2 hrs after trauma, stereotactic level 11.01) of the same compound?
Its value is 63.00 ± 11.70 cells × 10^3/mm^3.

What about the “Neuronal densities CA3 hippocampus” value ([1]; 10 μg i.c.v. 2 hrs after trauma, stereotactic level 11.21) of the same compound?
Its value is 67.70 ± 14.00 cells × 10^3/mm^3.

What about the “Neuronal densities CA3 hippocampus” value ([1]; 10 μg i.c.v. 4 hrs after trauma, stereotactic level 10.21) of the same compound?
The value was 72.20 ± 5.70 cells × 10^3/mm^3.

And the “Neuronal densities CA3 hippocampus” value ([1]; 10 μg i.c.v. 4 hrs after trauma, stereotactic level 10.41)?
Its value is 65.90 ± 8.80 cells × 10^3/mm^3.

And the “Neuronal densities CA3 hippocampus” value ([1]; 10 μg i.c.v. 4 hrs after trauma, stereotactic level 10.61)?
The value was 63.00 ± 6.30 cells × 10^3/mm^3.

What about the “Neuronal densities CA3 hippocampus” value ([1]; 10 μg i.c.v. 4 hrs after trauma, stereotactic level 10.81) of the same compound?
The value was 60.50 ± 10.50 cells × 10^3/mm^3.

What about the “Neuronal densities CA3 hippocampus” value ([1]; 10 μg i.c.v. 4 hrs after trauma, stereotactic level 11.01) of the same compound?
The value was 62.20 ± 13.50 cells × 10^3/mm^3.

And the “Neuronal densities CA3 hippocampus” value ([1]; 10 μg i.c.v. 4 hrs after trauma, stereotactic level 11.21)?
The value was 66.30 ± 15.90 cells × 10^3/mm^3.

And the “Neuronal densities CA3 hippocampus” value ([1]; 10 μg i.c.v. 8 hrs after trauma, stereotactic level 10.21)?
The value was 62.00 ± 4.90 cells × 10^3/mm^3.

And the “Neuronal densities CA3 hippocampus” value ([1]; 10 μg i.c.v. 8 hrs after trauma, stereotactic level 10.41)?
The value was 53.00 ± 6.44 cells × 10^3/mm^3.

And the “Neuronal densities CA3 hippocampus” value ([1]; 10 μg i.c.v. 8 hrs after trauma, stereotactic level 10.61)?
The value was 53.00 ± 6.00 cells × 10^3/mm^3.

And the “Neuronal densities CA3 hippocampus” value ([1]; 10 μg i.c.v. 8 hrs after trauma, stereotactic level 10.81)?
Its value is 52.50 ± 4.48 cells × 10^3/mm^3.

What about the “Neuronal densities CA3 hippocampus” value ([1]; 10 μg i.c.v. 8 hrs after trauma, stereotactic level 11.01) of the same compound?
Its value is 61.80 ± 4.48 cells × 10^3/mm^3.

What about the “Neuronal densities CA3 hippocampus” value ([1]; 10 μg i.c.v. 8 hrs after trauma, stereotactic level 11.21) of the same compound?
Its value is 65.90 ± 4.90 cells × 10^3/mm^3.

And the “Neuronal densities CA3 hippocampus” value ([1]; 30 μg i.c.v. 15 min after trauma, stereotactic level 10.21)?
The value was 108.40 ± 3.15 cells × 10^3/mm^3.

And the “Neuronal densities CA3 hippocampus” value ([1]; 30 μg i.c.v. 15 min after trauma, stereotactic level 10.41)?
Its value is 105.20 ± 5.76 cells × 10^3/mm^3.

What about the “Neuronal densities CA3 hippocampus” value ([1]; 30 μg i.c.v. 15 min after trauma, stereotactic level 10.61) of the same compound?
Its value is 94.20 ± 5.10 cells × 10^3/mm^3.

What about the “Neuronal densities CA3 hippocampus” value ([1]; 30 μg i.c.v. 15 min after trauma, stereotactic level 10.81) of the same compound?
The value was 83.20 ± 7.10 cells × 10^3/mm^3.

What about the “Neuronal densities CA3 hippocampus” value ([1]; 30 μg i.c.v. 15 min after trauma, stereotactic level 11.01) of the same compound?
The value was 80.20 ± 7.45 cells × 10^3/mm^3.

And the “Neuronal densities CA3 hippocampus” value ([1]; 30 μg i.c.v. 15 min after trauma, stereotactic level 11.21)?
The value was 90.00 ± 9.24 cells × 10^3/mm^3.

And the “effect on hippocampal neuronal loss” value ([1]; 3, 10 or 30 μg i.c.v. 15 min after trauma, ANOVA P<0.001 for all three doses)?
The value was “partially prevented hippocampal neuronal loss”.

What about the “neuroprotective effect (time window)” value ([1]; administered i.c.v. up to 8 hrs after trauma) of the same compound?
The value was “neuroprotective effect was still evident”.

And the “neuroprotective effect (dose response)” value ([1]; i.c.v. after trauma)?
The value was “dose-dependent neuroprotective effect”.

What about the “most effective dose against hippocampal neuronal loss” value ([1]; of 3, 10 or 30 μg i.c.v. 15 min after trauma) of the same compound?
Its value is 10 µg.

CN(C)CCCN(C)C(=O)CC(CC1(C(=O)NC2CCc3ccccc3N(CC(=O)O)C2=O)CCCC1)C(=O)O (stereo not drawn) [Example 64, 2-[(1-{[1-(carboxymethyl)-2-oxo-2,3,4,5-tetrahydro-1H-1-benzazepin-3-yl]carbamoyl}cyclopentyl)methyl]-4-{[3-(dimethylamino)propyl](methyl)amino}-4-oxobutanoic acid] was tested. Which “% substance-related inhibition of the maximum Big-ET effect on SAP vs. control” value [2] did it give?
Its value is −53 ± 5%.
